Assay [1] addresses T1, IAV RdRp from A/PR/8/34/H1N1 strain (Influenza A virus, UniProt P03428+P03431). The assay is classed as biochemical, influenza virus A/PR/8/34/H1N1.
The target of assay [2] is T1, IAV RdRp from A/PR/8/34/H1N1 strain. The conditions noted are these: inhibiting the transcriptional activity of viral polymerase; ref Pagadala [2019]; cited from earlier work.

Like-named read-outs stand apart in the source and are kept apart here.

Drawing on PMC7246003 (Medicinal Chemistry Research, 2020), this text covers IC25 and IC50 for three molecules.

T1 sequence (P03428 whole entry, looked up): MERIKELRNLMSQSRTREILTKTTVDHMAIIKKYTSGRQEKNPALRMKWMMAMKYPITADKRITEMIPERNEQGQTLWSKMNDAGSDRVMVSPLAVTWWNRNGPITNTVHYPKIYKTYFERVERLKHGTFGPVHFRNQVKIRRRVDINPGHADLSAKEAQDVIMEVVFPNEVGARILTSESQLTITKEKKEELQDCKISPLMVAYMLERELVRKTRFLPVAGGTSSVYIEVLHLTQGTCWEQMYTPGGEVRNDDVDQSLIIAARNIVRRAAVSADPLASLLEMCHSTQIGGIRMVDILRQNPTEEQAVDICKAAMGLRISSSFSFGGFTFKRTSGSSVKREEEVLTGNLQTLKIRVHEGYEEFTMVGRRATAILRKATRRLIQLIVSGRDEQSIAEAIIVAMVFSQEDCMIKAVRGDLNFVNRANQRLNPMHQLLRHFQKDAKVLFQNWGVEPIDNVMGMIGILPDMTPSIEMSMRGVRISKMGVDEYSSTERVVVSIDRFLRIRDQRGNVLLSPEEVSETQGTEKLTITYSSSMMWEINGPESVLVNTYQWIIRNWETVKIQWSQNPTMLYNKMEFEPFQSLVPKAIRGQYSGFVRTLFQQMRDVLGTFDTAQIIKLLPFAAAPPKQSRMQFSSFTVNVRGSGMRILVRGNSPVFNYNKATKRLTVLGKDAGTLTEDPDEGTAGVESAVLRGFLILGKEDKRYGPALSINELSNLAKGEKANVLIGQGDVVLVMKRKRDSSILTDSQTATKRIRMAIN
T1 sequence (P03431 whole entry, looked up): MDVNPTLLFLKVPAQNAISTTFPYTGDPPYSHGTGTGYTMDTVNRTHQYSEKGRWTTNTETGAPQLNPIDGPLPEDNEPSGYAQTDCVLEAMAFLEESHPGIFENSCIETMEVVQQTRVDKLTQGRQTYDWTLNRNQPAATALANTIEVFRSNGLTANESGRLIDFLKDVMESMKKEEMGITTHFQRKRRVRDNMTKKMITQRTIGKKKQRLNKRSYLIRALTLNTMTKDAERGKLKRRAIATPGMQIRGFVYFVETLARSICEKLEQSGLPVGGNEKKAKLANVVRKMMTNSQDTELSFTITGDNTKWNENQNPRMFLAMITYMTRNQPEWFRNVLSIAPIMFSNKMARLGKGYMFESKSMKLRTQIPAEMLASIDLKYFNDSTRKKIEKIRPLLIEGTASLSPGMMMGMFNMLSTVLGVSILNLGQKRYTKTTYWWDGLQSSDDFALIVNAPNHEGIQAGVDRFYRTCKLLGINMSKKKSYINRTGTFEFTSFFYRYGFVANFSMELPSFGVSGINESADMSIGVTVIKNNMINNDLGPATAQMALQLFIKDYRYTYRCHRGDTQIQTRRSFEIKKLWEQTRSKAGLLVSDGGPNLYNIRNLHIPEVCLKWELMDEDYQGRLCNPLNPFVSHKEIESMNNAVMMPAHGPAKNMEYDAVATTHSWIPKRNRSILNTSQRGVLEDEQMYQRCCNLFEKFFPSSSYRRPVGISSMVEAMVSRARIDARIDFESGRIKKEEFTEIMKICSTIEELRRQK

As to “5′-Dimethoxytrityl-2′-tosyl-N2-isobutyryl-guanosine [Compound 7]”, in assay [1], the IC25 is given as 0.25 µM and it took 680 nM to reach half-maximal inhibition (IC50).

`Cc1cn([C@H]2C[C@H](N=[N+]=[N-])[C@@H](CO[P@](=O)(O)O[P@](=O)(O)OP(=O)(O)O)O2)c(=O)[nH]c1=O` [3′-azido-3′-deoxy-thymidine-5′-triphosphate]: the IC50 in assay [2] was 1120 nM.

Consider `Nc1nc2c(ncn2[C@@H]2O[C@H](COP(=O)(O)OP(=O)(O)OP(=O)(O)O)[C@@H](O)[C@H]2F)c(=O)[nH]1` [Compound 12, 2′-deoxy-2′-fluoroguanosine 5′-triphosphate], for which the IC50 in assay [2] was 1120 nM.
